The results in this text go back to US5081253A, “Imidazo(4,5-C)pyridines as antiosteoporotic agents” (American Home Products Corporation, priority 1990, dated 1992).

Structures are written as SMILES.

The subject of one assay is Rat Limb Bones (PTH induced bone resorption). As to the kind of experiment: Bone Resorption Assay: 45Ca Release from Rat Limb Bones (PTH Induced). The class given is cell-based, rat (Sprague-Dawley CD). The settings on record: Table I, 10 μg/mL. As to the method:
The purpose of this assay is to identify compounds that inhibit basal or stimulated bone resorption in culture.
The ability of 2-substituted-imidazo[4,5-c]pyridines to modify the process of bone resorption was evaluated essentially as described by L.G. Raisz, Bone resorption in tissue culture. Factors influencing the response to parathyroid hormone.
Timed pregnant Sprague-Dawley CD® rats (Charles River) are administered 100 μCi ^45 CaCl2 (NEN calcium -45 NEZ-013) in 100 μL of 0.9% saline, subcutaneously, on day 18 of gestation. The rats are sacrificed the following day by CO2 asphyxiation. The fetuses are removed and the right forelimbs excised and placed in a Petri dish containing ice cold explant medium consisting of modified BGJb -Fitton Jackson media (custom formulation, Gibco No. 78-0088) adjusted to pH 7.3 to which 10 mM TES is added. […] Under a dissecting microscope, the bones are gently cleaned of adherent tissue and the cartilaginous ends removed. Incubation and drug treatment. […] The preincubation medium is brought to 37° C. prior to transfer of bones. The preincubation medium consists of the modified BGJb medium (with salts and glucose as above), pH 7.3, containing 29 mM NaHCO3. […] For compounds that require nonaqueous solvents, dilutions are made from the appropriate stock solution with medium. In these instances, basal and bone resorption stimulated controls exposed to an equivalent concentration of the vehicle are included. […] The right ulna and radius from each fetus are used. Both bones are subjected to the same treatment and each treatment group consists of bones from 4 or more fetuses. Treatments are randomly assigned using a preclinical statistics program (PS-ALLOC). After a 48 hour incubation at 37° C. in 5% CO2, the bones are removed from the medium and extracted in 0.5 mL of 0.1N HCl for 1 or more days. Duplicate 150 μL aliquots of the incubation medium and the bone extract are analyzed for ^45 Ca radioactivity in 5 mL of liquid scintillation cocktail.
The percentage of bone ^45 Ca released into the medium is determined as follows: [formula] […]
Take `COc1cccc(CC[S+]([O-])c2nc3cnccc3[nH]2)c1` (stereo not drawn) [Example 17, 2-[[(3 -Methoxyphenyl)ethyl]sulfinyl]-1H-imidazo[4,5-c]pyridine]: the “Inhibition of Bone Resorption, PTH Induced” value (“Inhibition … PTH Induced” below) was “Active”.

In the case of `COc1cccc(CS(=O)(=O)c2nc3cnccc3[nH]2)c1` [Example 4], the “Inhibition … PTH Induced” value is reported as “Active”.

Regarding `[O-][S+](Cc1ccccc1)c1nc2cnccc2[nH]1` (stereo not drawn) [Example 12, 2-[[(Phenyl)methyl]sulfinyl]-1H-imidazo-[4,5-c]pyridine], the “Inhibition … PTH Induced” value is given as “Active”.

On to `[O-][S+](Cc1ccc(Br)cc1F)c1nc2cnccc2[nH]1` (stereo not drawn) [Example 21, 2-[[(4-Bromo-2-fluorophenyl)methyl]sulfinyl]-1H-imidazo[4,5-c]pyridine], for which the “Inhibition … PTH Induced” value is recorded as “Active”.

The assay is the same for the next values; noted with them: Table II, 10 μg/mL.
Take `COc1ccc(CSc2nc3cnccc3[nH]2)cc1` [Example 26, 2-[[(4-Methoxyphenyl)methyl]thio]-1H-imidazo[4,5-c]pyridine]: the “Inhibition … PTH Induced” value was “Active”.

For the compound `Fc1c(F)c(F)c(CSc2nc3cnccc3[nH]2)c(F)c1F` [Example 32, 2-[[(Pentafluorophenyl)methyl]thio]-1H-imidazo[4,5-c]pyridine], the “Inhibition … PTH Induced” value was “Inactive”.

Take `Fc1ccc(CSc2nc3cnccc3[nH]2)cc1F` [Example 30, 2-[[(3,4-Difluorophenyl)methyl]thio]-1H-imidazo[4,5-c]pyridine]: the “Inhibition … PTH Induced” value is given as “Inactive”.

The test system of the next assay is Rat Limb Bones (basal bone resorption). As to the kind of experiment: Basal Bone Resorption Assay: 45Ca Release from Rat Limb Bones. Format: cell-based. The settings on record: Table I, 10 μg/mL. An excerpt:
The purpose of this assay is to test stimulators and inhibitors of bone resorption in vitro. The release of ^45 Ca from in vitro labeled murine bone explants into the culture media is taken as an index of bone resorption.
Rat pups are labelled […] by injecting pregnant dams (18 days) with 100 μCi of ^45 Ca.
Two days after the initiation of labelling, the dam is anesthetized with halothane and killed by cervical dislocation. The pups are ablated and quickly decapitated. The calvaria (frontal and parietal bones), forelimbs (containing radii and ulnae), and hind limbs (tibiae) are removed and placed in control media in a petri dish. Bones are debrided of soft tissue by a combination of blunt dissection, and gentle rolling on bibulous paper, taking care not to disturb the periosteum. Cartilaginous ends are cut off long bones. Calvaria are cut in half along midline suture. Bones are separated into 3 categories: calvaria halves, Tibiae and ulnae/radii. Groups of eight (per bone group) are randomly placed in 24-well culture plates containing 0.5 mL of control media. Cultures are maintained at 37° C. in a humidified incubator of 95% air: 5% CO2.
These bones are incubated for 24 hours, media is aspirated from the bones and replaced with fresh media containing test substances. Each bone group has a control group of 8 and a dead bone group of 8. The devitalized cultures are obtained by heating the bones in medium at 55° C. for 60 minutes. The bones are incubated at 37° C. for an additional 72 hours. At the end of this period a 100 microliter aliquot of media is removed and placed in a scintillation vial. Ten mL of Aquasol is added, the ^45 Ca is quantified in a scintillation spectrometer. Bones are rinsed in saline, placed in a scintillation vial, hydrolyzed overnight in 0.75 mL 6N HCl at room temperature. The hydrolyzed bone solution is neutralized by the addition of 2.25 mL of 2N NaOH, followed by 10 mL of Aquasol, the ^45 Ca content is determined by scintillation spectrometry.
Analysis: ^45 Ca release into culture medium from the 24-96 hour period is individually compared to ^45 Ca release in control cultures and to devitalized bone via Dunnett's test. […]
As for `COc1cccc(CC[S+]([O-])c2nc3cnccc3[nH]2)c1` (stereo not drawn) [Example 17, 2-[[(3 -Methoxyphenyl)ethyl]sulfinyl]-1H-imidazo[4,5-c]pyridine], the “Inhibition of Bone Resorption, Basal” value is “Inactive”.

`COc1cccc(CS(=O)(=O)c2nc3cnccc3[nH]2)c1` [Example 4]: the “Inhibition of Bone Resorption, Basal” value is recorded as “Marginal”.

Regarding `[O-][S+](Cc1ccccc1)c1nc2cnccc2[nH]1` (stereo not drawn) [Example 12, 2-[[(Phenyl)methyl]sulfinyl]-1H-imidazo-[4,5-c]pyridine], the “Inhibition of Bone Resorption, Basal” value is “Active”.

Take `[O-][S+](Cc1ccc(Br)cc1F)c1nc2cnccc2[nH]1` (stereo not drawn) [Example 21, 2-[[(4-Bromo-2-fluorophenyl)methyl]sulfinyl]-1H-imidazo[4,5-c]pyridine]: the “Inhibition of Bone Resorption, Basal” value is listed as “Active”.

Still in this assay, the particulars now being: Table II, 10 μg/mL.
With `COc1ccc(CSc2nc3cnccc3[nH]2)cc1` [Example 26, 2-[[(4-Methoxyphenyl)methyl]thio]-1H-imidazo[4,5-c]pyridine], the “Inhibition of Bone Resorption, Basal” value is reported as “Inactive”.

For `Fc1c(F)c(F)c(CSc2nc3cnccc3[nH]2)c(F)c1F` [Example 32, 2-[[(Pentafluorophenyl)methyl]thio]-1H-imidazo[4,5-c]pyridine], the “Inhibition of Bone Resorption, Basal” value is “Inactive”.

For the compound `Fc1ccc(CSc2nc3cnccc3[nH]2)cc1F` [Example 30, 2-[[(3,4-Difluorophenyl)methyl]thio]-1H-imidazo[4,5-c]pyridine], the “Inhibition of Bone Resorption, Basal” value was “Inactive”.

A further assay deals with osteopenia induced by denervation of the sciatic nerve in rats. Kind of assay: Denervation Induced Osteopenia in Rats. The class given is in vivo, rat (female Sprague Dawley CD). The settings on record: Table I, no dose given; oral or parenteral daily (five times a week) for four weeks. An excerpt: The purpose of this assay is to evaluate the effect, in rats, of agents on the reduction in bone mass (osteopenia) induced by immobilization resulting from surgical severance (denervation) of the sciatic nerve.
The animals are housed in plastic cages (4 or 5 rats/cage) with food (rat purina 500 chow) and water ad libitum; 14/10 day/night cycle.
After one week of in-house acclimatization, the animals are randomly divided into groups of 6 to 10 rats/group. Each rat is weighed, anesthetized with an intraperitoneal administration of 100 mg/kg ketamine (Bristol Laboratories, Syracuse, N.Y.) and 0.75 mg/kg Acepromazine (Aveco, Ft. Dodge, Iowa). The left hind limb is shaved and denervated by making a lateral incision parallel to the femur and by surgically removing half of a centimeter of the sciatic nerve adjacent to caudofemoralis and adductor brevis muscles. The incision is closed with wound clips. After surgery, the rats are housed in cages with absorbent bedding to minimize additional trauma to the immobilized limb. A 24 hour post-surgery recovery period is allowed before the initiation of the drug treatment.
The concentration of the drug stock is calculated to be delivered in a volume of 0.1 mL/100 gram body weight. The drug solution or a uniform suspension is prepared in 1% Tween 80 in normal saline. The drugs are administered via oral or parenteral routes daily (five times a week) for four weeks.
A sequential triple labeling of mineralized tissue is employed to determine the osseous changes (especially the bone formation) and the mineralization rates. Each animal is administered 90 mg/kg Xylenol orange (Fisher Scientific Company), S.C., 15 mg/kg Calcein (Sigma Chemical Company), S.C. and 15 mg/kg Demeclocycline (Sigma Chemical Company), i.p., approximately 21 days, 10 days and 2 days prior to the termination of the study, respectively.
At the end of the fourth week, each rat is weighed, anesthetized with an intraperitoneal administration of 100 mg/kg ketamine with 0.75 mg/kg Acepromazine and approximately 4 mL of blood collected via cardiac puncture. The anesthetized rats are euthanized by exposure to carbon dioxide. The femora and tibiae from both limbs are dissected free of soft tissue. (i) Femora are ashed at ~1100° C. for 16 hours using a muffle furnace. --(ii) Proximal tibia are fixed, dehydrated and embedded undecalcified in a methyl methacrylate-glycol methacrylate mixture. Longitudinal tissue sections (10 microns) are prepared on a Polycut S microtome (Reichert). Staining is performed on free-floating sections using a modified Goldner's stain, which are then mounted and coverslipped.
Cancellous bone content in the proximal tibia is quantified (as two dimensional bone mineral area [B.Ar]) with an image analysis processing device (software developed by Drexel University).
The areas of the tibia selected for cancellous bone content evaluation are the primary and secondary spongiosa. To select and standardize this area for evaluation, the epiphyseal growth plate-metaphyseal junction is oriented parallel to the abscissa of the digitizing screen. Bone elements 1.7 mm (secondary spongiosa) and 0.2 mm (primary spongiosa) from the growth plate and equidistant from the flanking cortical elements are then quantified as described above. The total area evaluated is 2.30 mm wide and 1.45 mm deep, constituting a 3.34 mm^2 area.
Body weight, femur mass (dried or ashed) and trabecular (cancellous) bone mineral area (B.Ar) are determined.
The difference (both absolute and percent change) in femur mass and bone mineral area between intact (control) and denervated limbs of a treatment group are compared with that for the vehicle group using a one-way analysis of variance with Dunnett's test, or other multiple comparison methods.
The results are reported in Table I and II under the heading In Vivo.
On to `COc1cccc(CC[S+]([O-])c2nc3cnccc3[nH]2)c1` (stereo not drawn) [Example 17, 2-[[(3 -Methoxyphenyl)ethyl]sulfinyl]-1H-imidazo[4,5-c]pyridine], for which the “Inhibition of Bone Resorption, In Vivo” value is “Borderline”.

The same assay, now with this note: Table II, 25 mg/kg, p.o.
Regarding `COc1ccc(CSc2nc3cnccc3[nH]2)cc1` [Example 26, 2-[[(4-Methoxyphenyl)methyl]thio]-1H-imidazo[4,5-c]pyridine], the “Inhibition of Bone Resorption, In Vivo” value is “Inactive”.

With `Fc1c(F)c(F)c(CSc2nc3cnccc3[nH]2)c(F)c1F` [Example 32, 2-[[(Pentafluorophenyl)methyl]thio]-1H-imidazo[4,5-c]pyridine], the “Inhibition of Bone Resorption, In Vivo” value is reported as “Inactive”.

On to `Fc1ccc(CSc2nc3cnccc3[nH]2)cc1F` [Example 30, 2-[[(3,4-Difluorophenyl)methyl]thio]-1H-imidazo[4,5-c]pyridine], for which the “Inhibition of Bone Resorption, In Vivo” value is reported as “Inactive”.

Staying with this assay, now noted: po, 672 h.
With `COc1cccc(CS(=O)(=O)c2nc3cnccc3[nH]2)c1` [Example 4], the “Inhibition of Bone Resorption, In Vivo” value is listed as “Inactive”.

For the compound `[O-][S+](Cc1ccccc1)c1nc2cnccc2[nH]1` (stereo not drawn) [Example 12, 2-[[(Phenyl)methyl]sulfinyl]-1H-imidazo-[4,5-c]pyridine], the “Inhibition of Bone Resorption, In Vivo” value is “Inactive”.

For the compound `[O-][S+](Cc1ccc(Br)cc1F)c1nc2cnccc2[nH]1` (stereo not drawn) [Example 21, 2-[[(4-Bromo-2-fluorophenyl)methyl]sulfinyl]-1H-imidazo[4,5-c]pyridine], the “Inhibition of Bone Resorption, In Vivo” value is given as “Inactive”.
